Counter-ions that a name gives are not always drawn.
Assays:
PPARγ = molecular target: T1, PPARγ (Homo sapiens, UniProt P37231); experiment: Cross-curve PPAR transactivation test, PPARγ; assay type: cell-based; conditions: HeLN cells stably transfected with Gal-hPPAR and luciferase reporter; cross curves against reference agonist, Schild regression; n.a means not active; read-out: PPAR gamma Kd app
T1 construct: The reporter is ERE-βGlob-Luc-SV-Neo
T1 sequence (P37231 238-505 limits assumed): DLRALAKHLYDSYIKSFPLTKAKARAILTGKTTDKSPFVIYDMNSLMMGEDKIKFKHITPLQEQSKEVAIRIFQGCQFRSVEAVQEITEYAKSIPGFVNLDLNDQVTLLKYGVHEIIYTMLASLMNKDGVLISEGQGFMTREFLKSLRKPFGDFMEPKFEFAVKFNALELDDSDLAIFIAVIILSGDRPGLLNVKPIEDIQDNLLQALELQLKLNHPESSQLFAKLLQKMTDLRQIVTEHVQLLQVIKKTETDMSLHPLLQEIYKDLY
Description: (§1) The activation of the receptors with an agonist (activator) in HeLN cells leads to the expression of a reporter gene, luciferase, which, in the presence of a substrate, generates light. The modulation of the receptors is measured by quantifying the luminescence produced after incubating the cells in the presence of a reference agonist. The ligands displace the agonist from its site. The measurement of the activity is performed by quantifying the light produced. This measurement makes it possible to determine the modulatory activity of the compounds according to the invention by determining the constant that is the affinity of the molecule for the receptor. Since this value can fluctuate depending on the basal activity and the expression of the receptor, it is referred to as Kd apparent (KdApp in nM).
(§2) To determine this constant, “cross curves” of the test product against a reference agonist are produced in a 96-well plate: 10 concentrations of the test product plus a concentration 0 are arranged in a line, and 7 concentrations of the agonist plus a concentration 0 are arranged in a column. This is 88 measurement points for 1 product and 1 receptor. The remaining 8 wells are used for repeatability controls.
(§3) Measurements are also taken for total agonist controls with the same products.
(§4) The HeLN cell lines used are stable transfectants containing the plasmids ERE-βGlob-Luc-SV-Neo (reporter gene) and PPAR (α, δ, γ) Gal-hPPAR. These cells are inoculated into 96-well plates at a rate of 10-000 cells per well in 100 μL of DMEM medium without phenol red and supplemented with 10% of defatted calf serum. The plates are then incubated at 37° C. and 7% CO2 for 16 hours. The various dilutions of the test products and of the reference ligand are added at a rate of 5 μL per well. The plates are then incubated for 18 hours at 37° C. and 7% CO2.
(§5) The culture medium is removed by turning over and 100 μL of a 1:1 PBS/luciferin mixture are added to each well. After 5 minutes, the plates are read by the luminescence detector.

PPARα = molecular target: T2, PPARα (Homo sapiens, UniProt Q07869); experiment: Cross-curve PPAR transactivation test, PPARα; assay type: cell-based; conditions: HeLN cells stably transfected with Gal-hPPAR and luciferase reporter; cross curves against reference agonist, Schild regression; n.a means not active; read-out: PPAR alpha Kd app
T2 construct: The reporter is ERE-βGlob-Luc-SV-Neo
T2 sequence (Q07869 200-468 limits assumed): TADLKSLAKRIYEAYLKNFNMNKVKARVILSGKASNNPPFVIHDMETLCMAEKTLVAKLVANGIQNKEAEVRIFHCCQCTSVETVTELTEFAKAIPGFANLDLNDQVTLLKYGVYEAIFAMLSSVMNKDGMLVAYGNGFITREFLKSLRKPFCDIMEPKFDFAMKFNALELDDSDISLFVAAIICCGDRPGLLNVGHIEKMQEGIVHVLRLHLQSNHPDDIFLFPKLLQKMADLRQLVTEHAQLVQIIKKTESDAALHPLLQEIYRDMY
Description: as §1, §2, §3, §4, §5

PPARδ = molecular target: T3, PPARδ (Homo sapiens, UniProt Q03181); experiment: Cross-curve PPAR transactivation test, PPARδ; assay type: cell-based; conditions: HeLN cells stably transfected with Gal-hPPAR and luciferase reporter; cross curves against reference agonist, Schild regression; n.a means not active; read-out: PPARs delta Kd app
T3 construct: The reporter is ERE-βGlob-Luc-SV-Neo
T3 sequence (Q03181 211-441 limits assumed): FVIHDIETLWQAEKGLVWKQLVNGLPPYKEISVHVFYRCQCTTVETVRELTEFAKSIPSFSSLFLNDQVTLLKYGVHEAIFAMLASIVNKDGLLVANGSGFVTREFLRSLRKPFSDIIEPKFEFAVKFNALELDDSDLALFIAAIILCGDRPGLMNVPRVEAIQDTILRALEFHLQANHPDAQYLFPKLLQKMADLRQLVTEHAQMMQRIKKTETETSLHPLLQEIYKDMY
Description: as §1, §2, §3, §4, §5

| SMILES | Kd (PPARγ) | Kd (PPARα) | Kd (PPARδ) | melting point |
| --- | --- | --- | --- | --- |
| CCCCCNC(=O)N(C)c1cccc(-c2ccc(/C=C(\OCC)C(=O)O)cc2)n1 [Compound 3, (Z)-2-ethoxy-3-{4-[6-(1-methyl-3-pentylureido)pyrid-2-yl]phenyl}acrylic acid] | 30 nM | – | – | 162 °C |
| CCCCCCCNC(=O)N(C)c1cccc(-c2ccc(/C=C(\F)C(=O)O)cc2)c1 [Compound 6, (Z)-2-fluoro-3-[3′-(3-heptyl-1-methylureido)biphenyl-4-yl]acrylic acid] | 60 nM | – | – | – |
| CCCCCNC(=O)N(C)c1cccc(-c2ccc(/C=C(\OC)C(=O)O)cc2OCCCC)c1 [Compound 24, (Z)-3-[2-butoxy-3′-(1-methyl-3-pentylureido)biphenyl-4-yl]-2-methoxyacrylic acid] | – | – | – | 61 °C |
| CCCCCCCNC(=O)N(C)c1cccc(-c2ccc(/C=C(\OCC)C(=O)O)cc2)n1 [Compound 2, (Z)-2-ethoxy-3-{4-[6-(3-heptyl-1-methylureido)pyrid-2-yl]phenyl}acrylic acid] | 30 nM | 1000 nM | – | – |
| COC(=O)/C(=C/c1ccc(-c2cccc(N(C)C(=O)NC3CCCCC3)c2)cc1)OC [Compound 14, Methyl (Z)-3-[3′-(3-cyclohexyl-1-methylureido)biphenyl-4-yl]-2-methoxyacrylate] | 60 nM | – | 4000 nM | – |
| CO/C(=C\c1ccc(-c2cccc(N(C)C(=O)NCCc3ccccc3)c2)cc1)C(=O)O [Compound 16, (Z)-2-methoxy-3-[3′-(1-methyl-3-phenethylureido)biphenyl-4-yl]acrylic acid] | 8 nM | – | – | – |
| CCCCCNC(=O)N(C)c1cccc(-c2ccc(/C=C(\OC)C(=O)O)cc2)c1 [Compound 13, (Z)-2-Methoxy-3-[3′-(1-methyl-3-pentylureido)biphenyl-4-yl]acrylic acid] | 8 nM | – | 4000 nM | – |
| CCCCOc1cc(/C=C(\CC)C(=O)O)ccc1-c1cccc(CN(C)C(=O)c2ccccc2)c1 [Compound 22, 2-[1-{3′-[(benzoylmethylamino)methyl]-2-butoxybiphenyl-4-yl}meth-(E)-ylidene]butyric acid] | 120 nM | – | – | – |
| CO/C(=C\c1ccc(-c2cccc(N(C)C(=O)NC3CCCCC3)c2)cc1)C(=O)O [Compound 15, (Z)-3-[3′-(3-cyclohexyl-1-methylureido)biphenyl-4-yl]-2-methoxyacrylic acid] | 8 nM | – | – | – |
| CCCCCCCC(=O)N(C)Cc1cccc(-c2ccc(/C=C(\OCC)C(=O)O)cc2)c1 [Compound 1, (Z)-2-ethoxy-3-{3′-[(methyloctanoylamino)methyl]biphenyl-4-yl}acrylic acid] | 30 nM | 2000 nM | – | – |
| CCCCOc1cc(/C=C(\C)C(=O)O)ccc1-c1cccc(CN(C)C(=O)c2cccc(OC)c2)c1 [Compound 21, (E)-3-(2-butoxy-3′-{[(3-methoxybenzoyl)methylamino]methyl}biphenyl-4-yl)-2-methylacrylic acid] | 30 nM | – | – | – |

Continued by falling Kd (PPARγ), values first:

| Kd (PPARγ) | Kd (PPARα) | Kd (PPARδ) | SMILES | melting point |
| --- | --- | --- | --- | --- |
| 4 nM | – | – | CCCCCCCNC(=O)N(C)c1cccc(-c2ccc(/C=C(\OCC)C(=O)O)cn2)c1 [Compound 4, (Z)-2-ethoxy-3-{6-[3-(3-heptyl-1-methylureido)phenyl]pyrid-3-yl}acrylic acid hydrochloride] | – |
| 4 nM | – | – | CCO/C(=C\c1ccc(-c2cccc(N(C)C(=O)NCCc3ccccc3)c2)cc1)C(=O)O [Compound 10, (Z)-2-ethoxy-3-[3′-(1-methyl-3-phenethylureido)biphenyl-4-yl]acrylic acid] | – |
| 4 nM | 500 nM | 2000 nM | CCCCCNC(=O)N(C)c1cccc(-c2ccc(/C=C(\CCC)C(=O)O)cc2)c1 [Compound 8, 2-[1-[3′-(1-methyl-3-pentylureido)biphenyl-4-yl]meth-(E)-ylidene]pentanoic acid] | – |
| 4 nM | – | – | CCCCNC(=O)N(C)c1cccc(-c2ccc(/C=C(\OC)C(=O)O)cc2)c1 [Compound 11, (Z)-3-[3′-(3-butyl-1-methylureido)biphenyl-4-yl]-2-methoxyacrylic acid] | – |
| 4 nM | – | – | CCCCCCCNC(=O)N(C)c1cccc(-c2ccc(/C=C(\CC)C(=O)O)cc2)c1 [Compound 7, 2-[1-[3′-(3-heptyl-1-methylureido)biphenyl-4-yl]meth-(E)-ylidene]butyric acid] | – |
| 4 nM | 2000 nM | 2000 nM | CCCCCNC(=O)N(C)c1cccc(-c2ccc(/C=C(\CC)C(=O)O)cc2)c1 [Compound 9, 2-[1-[3′-(1-methyl-3-pentylureido)biphenyl-4-yl]meth-(E)-ylidene]butyric acid] | – |
| 2 nM | – | – | CCCCCCCNC(=O)N(C)c1cccc(-c2ccc(/C=C(\C)C(=O)O)cc2)c1 [Compound 5, (E)-3-[3′-(3-heptyl-1-methylureido)biphenyl-4-yl]-2-methylacrylic acid] | – |
| 2 nM | – | – | CCCCCCCNC(=O)N(C)c1cccc(-c2ccc(/C=C(\C)C(=O)O)cc2OCCC)c1 [Compound 31, (E)-3-[3′-(3-heptyl-1-methylureido)-2-propoxybiphenyl-4-yl]-2-methylacrylic acid] | – |
| 1 nM | 4000 nM | – | CCCCCCCNC(=O)N(C)c1cccc(-c2ccc(/C=C(\C)C(=O)O)cc2OCC)c1 [Compound 32, (E)-3-[2-ethoxy-3′-(3-heptyl-1-methylureido)biphenyl-4-yl]-2-methylacrylic acid] | – |

— patent US8383652B2, “Biaromatic compounds that modulate PPAR-receptors” (Galderma Research & Development, priority 2005, dated 2013)
